pEC50: −log10 of the molar value. In brackets after ≈: the same amount, converted by molar mass. Like-named read-outs stand apart in the source and are kept apart here.
Columns and labels:
rat GluN1/GluN2C [1] = target: rat GluN1/GluN2C (Rattus norvegicus, UniProt P35439+Q00961); test: Two-electrode voltage clamp recordings in Xenopus laevis oocytes, potentiation of GluN1/GluN2C; type: cell-based
Experimental: (§1) Xenopus laevis oocytes were purchased unfertilized from Ecocyte (Austin, Tex.). The oocytes were injected with mRNA to express recombinant rat GluN1/GluN2A, GluN1/GluN2B, GluN1/GluN2C, and GluN1/GluN2D and two-electrode voltage clamp (TEVC) recordings were performed. Drs. S. Heinemann (Salk Institute), S. Nakanishi (Kyoto University), and P. Seeburg (University of Heidelberg) provided the cDNAs for rat GluN1-1a (GenBank accession numbers U11418 and U08261, referred to as GluN1 henceforth), GluN2A (D13211), GluN2B (U11419), GluN2C (M91563), and GluN2D (D13213). GluN2C and GluN2D were altered according to literature precedent. […] To prevent the current increase typically seen during experiments with oocytes expressing GluN1/GluN2A receptors, the oocytes were either injected with 20 nL of 100 mM K-BAPTA (potassium 1,2-bis(o-aminophenoxy)ethane-N,N,N,N-tetraacetic acid) or pretreated with 50 μM BAPTA-AM (1,2-bis(o-aminophenoxy)ethane-N,N,N,N-tetraacetic acid tetraacetoxymethyl ester) for 10 minutes.

rat GluN1/GluN2C [2] = target: rat GluN1/GluN2C (Rattus norvegicus, UniProt Q00961); test: as above; type: cell-based
Chain of rat GluN1/GluN2C (Rattus norvegicus, UniProt Q00961) (Q00961 20-1237, other chains not shown): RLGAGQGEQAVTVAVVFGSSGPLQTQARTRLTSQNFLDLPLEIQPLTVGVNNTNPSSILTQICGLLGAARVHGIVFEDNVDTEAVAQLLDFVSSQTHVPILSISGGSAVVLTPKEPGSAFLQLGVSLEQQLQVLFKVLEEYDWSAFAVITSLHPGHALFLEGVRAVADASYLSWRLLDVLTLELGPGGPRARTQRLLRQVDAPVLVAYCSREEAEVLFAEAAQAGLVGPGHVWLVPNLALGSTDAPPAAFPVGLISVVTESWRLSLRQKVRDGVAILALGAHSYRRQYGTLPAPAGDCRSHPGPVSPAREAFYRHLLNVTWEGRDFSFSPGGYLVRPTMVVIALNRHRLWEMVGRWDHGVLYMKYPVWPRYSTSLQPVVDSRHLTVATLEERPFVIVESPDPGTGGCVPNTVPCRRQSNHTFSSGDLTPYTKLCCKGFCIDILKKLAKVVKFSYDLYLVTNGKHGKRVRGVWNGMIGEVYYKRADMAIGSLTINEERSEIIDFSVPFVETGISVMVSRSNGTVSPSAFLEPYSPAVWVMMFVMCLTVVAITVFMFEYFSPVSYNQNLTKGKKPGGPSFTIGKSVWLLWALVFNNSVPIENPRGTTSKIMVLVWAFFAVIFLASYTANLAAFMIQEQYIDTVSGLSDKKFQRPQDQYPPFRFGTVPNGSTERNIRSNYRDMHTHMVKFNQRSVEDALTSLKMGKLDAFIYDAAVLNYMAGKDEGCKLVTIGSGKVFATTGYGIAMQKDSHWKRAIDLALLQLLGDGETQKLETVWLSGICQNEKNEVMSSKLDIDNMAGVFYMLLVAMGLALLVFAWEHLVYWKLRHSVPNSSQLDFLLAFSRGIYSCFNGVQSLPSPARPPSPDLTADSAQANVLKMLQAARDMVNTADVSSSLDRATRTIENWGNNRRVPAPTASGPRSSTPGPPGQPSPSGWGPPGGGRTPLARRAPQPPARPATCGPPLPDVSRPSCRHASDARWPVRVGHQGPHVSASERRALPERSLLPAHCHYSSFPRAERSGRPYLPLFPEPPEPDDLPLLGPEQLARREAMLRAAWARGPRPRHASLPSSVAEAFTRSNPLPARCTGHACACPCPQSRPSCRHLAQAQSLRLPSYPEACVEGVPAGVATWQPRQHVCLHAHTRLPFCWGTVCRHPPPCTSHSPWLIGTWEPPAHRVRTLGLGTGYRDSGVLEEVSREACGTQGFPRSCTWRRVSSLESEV
Experimental: as §1

α1-Glycine = target: T1, α1-Glycine (Homo sapiens, UniProt P23415); test: Off-target two-electrode voltage clamp assay, α1-Glycine; type: cell-based; details: 10 μM, mean ± SEM
T1 construct: expressed in transfected cells
T1 sequence (P23415 29-457): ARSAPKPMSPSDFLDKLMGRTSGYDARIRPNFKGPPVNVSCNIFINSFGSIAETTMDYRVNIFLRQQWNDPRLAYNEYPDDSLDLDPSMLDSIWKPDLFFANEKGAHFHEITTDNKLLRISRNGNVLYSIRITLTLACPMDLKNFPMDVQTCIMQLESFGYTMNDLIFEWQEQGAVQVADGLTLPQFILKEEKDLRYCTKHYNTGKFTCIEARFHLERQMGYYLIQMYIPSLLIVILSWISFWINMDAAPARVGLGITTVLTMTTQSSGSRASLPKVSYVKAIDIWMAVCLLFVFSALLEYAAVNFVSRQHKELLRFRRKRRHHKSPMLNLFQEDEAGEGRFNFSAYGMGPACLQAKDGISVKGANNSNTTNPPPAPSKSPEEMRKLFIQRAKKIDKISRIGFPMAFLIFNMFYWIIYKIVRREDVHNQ
Experimental: (§2) The NIMH PDSP is Directed by Bryan L. Roth at the University of North Carolina at Chapel Hill and Project Officer Jamie Driscoll at NIMH, Bethesda Md., USA. Radioligand binding was measured in the presence of 10 μM 1180-420 and 1180-447. […] For experimental details please refer to the PDSP web site https://pdsp.unc.edu/ims/investigator/web/. Both 1180-420 and 1180-447 were also tested at AMPA, nicotinic acetylcholine, serotonin, GABA, and glycine ion channels using a two-electrode voltage clamp assay.

5-HT1A = target: T2, 5-HT1A (Homo sapiens, UniProt P08908); test: NIMH PDSP radioligand binding, 5-HT1A; details: read-out: Radioligand binding in 10 μM compound (% control)
T2 construct: NIMH PDSP (assay provider)
T2 sequence (P08908 whole entry, species assumed): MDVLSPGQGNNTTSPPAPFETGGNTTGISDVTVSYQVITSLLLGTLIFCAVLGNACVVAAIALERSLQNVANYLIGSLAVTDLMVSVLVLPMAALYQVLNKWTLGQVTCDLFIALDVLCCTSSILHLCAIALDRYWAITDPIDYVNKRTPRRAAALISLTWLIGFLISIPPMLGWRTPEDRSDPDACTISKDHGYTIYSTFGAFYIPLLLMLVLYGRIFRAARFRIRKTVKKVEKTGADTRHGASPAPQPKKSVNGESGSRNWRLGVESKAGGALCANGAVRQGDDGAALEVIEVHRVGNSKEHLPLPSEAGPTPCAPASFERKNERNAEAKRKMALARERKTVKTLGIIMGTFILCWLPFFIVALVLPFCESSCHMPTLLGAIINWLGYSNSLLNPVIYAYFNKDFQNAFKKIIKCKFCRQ
Experimental: as §2
(§3) Receptor binding profiles of compound 1180-447 were generously provided by the National Institute of Mental Health's Psychoactive Drug Screening Program, Contract # HHSN-271-2013-00017-C(NIMH PDSP). The NIMH PDSP is directed by Bryan L. Roth at the University of North Carolina at Chapel Hill and Project Officer Jamie Driscoll at NIMH, Bethesda Md., USA. Radioligand binding was measured in the presence of 10 μM 1180-447. […] For experimental details please refer to the PDSP web site https://pdsp.unc.edu/ims/investigator/web/.
(§4) The NIMH PDSP is Directed by Bryan L. Roth at the University of North Carolina at Chapel Hill and Project Officer Jamie Driscoll at NIMH, Bethesda Md., USA. Radioligand binding was measured in the presence of 10 μM 1180-420. […] For experimental details please refer to the PDSP web site https://pdsp.unc.edu/ims/investigator/web/.

5-HT1B = target: T3, 5-HT1B (Homo sapiens, UniProt P28222); test: NIMH PDSP radioligand binding, 5-HT1B; details: read-out: Radioligand binding in 10 μM compound (% control)
T3 construct: NIMH PDSP (assay provider)
T3 sequence (P28222 whole entry, species assumed): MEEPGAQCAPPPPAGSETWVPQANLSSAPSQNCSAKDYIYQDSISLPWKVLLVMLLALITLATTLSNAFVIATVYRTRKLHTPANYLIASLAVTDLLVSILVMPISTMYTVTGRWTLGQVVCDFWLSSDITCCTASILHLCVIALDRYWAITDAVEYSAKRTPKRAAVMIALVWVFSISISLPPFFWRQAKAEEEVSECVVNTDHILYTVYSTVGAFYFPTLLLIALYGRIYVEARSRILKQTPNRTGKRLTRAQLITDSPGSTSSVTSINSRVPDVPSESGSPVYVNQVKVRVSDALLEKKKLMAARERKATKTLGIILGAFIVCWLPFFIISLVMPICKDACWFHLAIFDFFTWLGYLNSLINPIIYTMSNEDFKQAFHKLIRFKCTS
Experimental: as §2, §3, §4

H4 = H4 (Homo sapiens, UniProt Q9H3N8); test: NIMH PDSP radioligand binding, H4; details: read-out: Radioligand binding in 10 μM compound (% control)
Chain of H4 (Q9H3N8 whole entry): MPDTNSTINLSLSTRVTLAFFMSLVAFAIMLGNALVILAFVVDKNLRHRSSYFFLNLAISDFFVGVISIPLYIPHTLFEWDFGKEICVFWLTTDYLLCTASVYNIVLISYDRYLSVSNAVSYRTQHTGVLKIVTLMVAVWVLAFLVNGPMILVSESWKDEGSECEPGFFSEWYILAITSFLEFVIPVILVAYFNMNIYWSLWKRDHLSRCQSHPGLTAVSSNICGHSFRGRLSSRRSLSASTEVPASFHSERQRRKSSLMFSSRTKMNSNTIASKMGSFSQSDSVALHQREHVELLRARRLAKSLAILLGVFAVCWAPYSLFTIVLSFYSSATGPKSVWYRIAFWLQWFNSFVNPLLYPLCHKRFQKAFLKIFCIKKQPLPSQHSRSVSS
Experimental: as §2, §3, §4

α1D = α1D (Homo sapiens, UniProt P25100); test: NIMH PDSP radioligand binding, α1D; details: read-out: Radioligand binding in 10 μM compound (% control)
Chain of α1D (P25100 whole entry): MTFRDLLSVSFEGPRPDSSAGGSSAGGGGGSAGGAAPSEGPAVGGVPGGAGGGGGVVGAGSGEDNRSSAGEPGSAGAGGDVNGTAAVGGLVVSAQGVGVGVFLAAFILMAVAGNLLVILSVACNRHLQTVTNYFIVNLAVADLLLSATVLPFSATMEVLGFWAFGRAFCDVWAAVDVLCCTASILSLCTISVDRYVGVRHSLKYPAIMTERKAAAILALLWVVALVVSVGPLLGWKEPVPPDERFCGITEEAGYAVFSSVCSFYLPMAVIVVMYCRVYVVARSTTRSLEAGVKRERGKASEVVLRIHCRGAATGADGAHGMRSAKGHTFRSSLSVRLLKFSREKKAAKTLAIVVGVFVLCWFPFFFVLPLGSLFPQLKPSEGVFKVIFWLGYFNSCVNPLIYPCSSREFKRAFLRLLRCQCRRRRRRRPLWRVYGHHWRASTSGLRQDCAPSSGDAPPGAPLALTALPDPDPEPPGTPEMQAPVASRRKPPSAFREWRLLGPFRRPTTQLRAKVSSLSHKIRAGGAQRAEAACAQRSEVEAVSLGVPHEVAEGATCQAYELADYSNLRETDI
Experimental: as §2, §3, §4

α2B = α2B (Homo sapiens, UniProt P18089); test: NIMH PDSP radioligand binding, α2B; details: read-out: Radioligand binding in 10 μM compound (% control)
Chain of α2B (P18089 whole entry): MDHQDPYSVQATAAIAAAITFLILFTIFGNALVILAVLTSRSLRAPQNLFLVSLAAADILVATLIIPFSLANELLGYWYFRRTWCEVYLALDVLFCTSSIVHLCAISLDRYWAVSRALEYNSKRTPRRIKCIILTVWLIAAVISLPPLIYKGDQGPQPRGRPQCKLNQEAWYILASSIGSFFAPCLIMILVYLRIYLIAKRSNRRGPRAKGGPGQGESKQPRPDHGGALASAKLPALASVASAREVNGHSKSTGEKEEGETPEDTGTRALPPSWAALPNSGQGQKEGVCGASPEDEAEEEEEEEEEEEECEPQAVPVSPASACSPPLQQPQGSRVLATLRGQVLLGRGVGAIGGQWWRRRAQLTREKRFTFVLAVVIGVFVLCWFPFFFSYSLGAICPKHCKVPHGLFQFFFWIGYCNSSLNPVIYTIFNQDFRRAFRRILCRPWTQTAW
Experimental: as §2, §3, §4

[3] = system: benzodiazapine rat brain site; test: NIMH PDSP radioligand binding, benzodiazapine rat brain site
Experimental: as §2, §3, §4

5-HT3A = target: T4, 5-HT3A (Homo sapiens, UniProt P46098); test: Off-target two-electrode voltage clamp assay, 5-HT3A; type: cell-based; details: 10 μM, mean ± SEM
T4 construct: expressed in transfected cells
T4 sequence (P46098 24-478, species assumed): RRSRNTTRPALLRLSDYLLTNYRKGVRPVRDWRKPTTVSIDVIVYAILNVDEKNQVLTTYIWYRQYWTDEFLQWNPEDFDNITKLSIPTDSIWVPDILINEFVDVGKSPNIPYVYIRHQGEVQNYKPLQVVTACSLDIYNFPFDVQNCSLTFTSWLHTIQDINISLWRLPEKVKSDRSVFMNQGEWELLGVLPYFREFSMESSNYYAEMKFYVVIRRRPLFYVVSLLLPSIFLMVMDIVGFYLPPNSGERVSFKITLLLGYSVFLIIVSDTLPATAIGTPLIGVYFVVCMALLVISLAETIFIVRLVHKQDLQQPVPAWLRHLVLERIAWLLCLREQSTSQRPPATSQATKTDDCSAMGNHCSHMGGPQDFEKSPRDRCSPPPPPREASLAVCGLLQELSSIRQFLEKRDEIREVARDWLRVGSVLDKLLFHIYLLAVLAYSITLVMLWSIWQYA
Experimental: as §2

[4] = nephelometer, oocyte recording solution

Chain of rat GluN1/GluN2C (Rattus norvegicus, UniProt P35439+Q00961) (Q00961 20-1237, other chains not shown): as the sequence (Q00961 20-1237, other chains not shown) above

Row | SMILES | pEC50 (rat GluN1/GluN2C [1]; read-out: GluN2C EC50) | GluN2C Max % (rat GluN1/GluN2C [2]; maximal response, current without potentiator = 100%) | % control response (α1-Glycine) | remaining activity at 10 µM (5-HT1A) | remaining activity at 10 µM (5-HT1B) | remaining activity at 10 µM (H4) | remaining activity at 10 µM (α1D) | remaining activity at 10 µM (α2B) | Radioligand binding in 10 μM compound (% control) [3] | EC50 (rat GluN1/GluN2C [1]; read-out: GluN2C pEC50 [95% CI] (converted)) | GluN2C (max) (%) (rat GluN1/GluN2C [2]) | % control response (5-HT3A) | Solubility [4]
1 | COc1ccc(OCC2c3cccn3CCN2C(=O)c2cccc(Cl)c2)cc1 (stereo not shown) [1180-420, (3-Chlorophenyl)(1-((4-methoxyphenoxy)methyl)-3,4-dihydropyrrolo[1,2-a]pyrazin-2(1H)-yl)methanone] | 5.72 | 312% | 77.6 ± 4.9 % control response | 110% | 95% | 90% | 79% | 93% | 71 % control | – | – | – | –
2 | COc1ccc(OCC2c3cccn3CC(=O)N2Cc2cccc(C(F)(F)F)c2)cc1 (racemic) [1180-447, 1-((4-Methoxyphenoxy)methyl)-2-(3-(trifluoromethyl)benzyl)-1,2-dihydropyrrolo[1,2-a]pyrazin-3(4H)-one] | – | – | – | 101% | 109% | 107% | 79% | 94% | 88 % control | 1.26 µM | (298) % | 98.1 ± 10.4 % control response | 57 µM (≈ 24.5 µg/mL)

Reference: US11738008B2, “N-methyl-D-aspartic acid receptor modulators” (Emory University, priority 2018, dated 2023)
